# From the supplement of paper PMC9663587
# Legend:
# [1] = compound: CCN1CCN(Cc2ccc(Nc3ncc(F)c(-c4cc(F)c5nc(C)n(C(C)C)c5c4)n3)nc2)CC1; test: increase in dead-cell fraction, 72 h; higher = more death;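 also: breast cancer cell lines in 384-well plates, stained with Hoechst plus LIVE/DEAD far red dye and imaged, cells above an LDR intensity threshold counted dead, Hoechst-negative corpses included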
# THZ1 [2] = compound: T1, CN(C)C/C=C/C(=O)Nc1ccc(C(=O)Nc2cccc(Nc3ncc(Cl)c(-c4c[nH]c5ccccc45)n3)c2)cc1 [THZ1]; test: as above
# THZ531 = compound: CN(C)C/C=C/C(=O)Nc1ccc(C(=O)N2CCC[C@@H](Nc3ncc(Cl)c(-c4c[nH]c5ccccc45)n3)C2)cc1 [THZ531]; test: as above
# Neratinib/HKI272 [3] = compound: T2, CCOc1cc2ncc(C#N)c(Nc3ccc(OCc4ccccn4)c(Cl)c3)c2cc1NC(=O)/C=C/CN(C)C [Neratinib/HKI272]; test: as above
# [4] = compound: CCc1cnn2c(NCc3ccc[n+]([O-])c3)cc(N3CCCC[C@H]3CCO)nc12; test: as above
# LEE011/Ribociclib = compound: CN(C)C(=O)c1cc2cnc(Nc3ccc(N4CCNCC4)cn3)nc2n1C1CCCC1 [LEE011/Ribociclib]; test: as above
# BSJ-03-123 = compound: CC(=O)c1c(C)c2cnc(Nc3ccc(N4CCN(CCOCCOCCOCCNC(=O)COc5cccc6c5C(=O)N(C5CCC(=O)NC5=O)C6=O)CC4)cn3)nc2n(C2CCCC2)c1=O [BSJ-03-123]; test: as above
# Flavopiridol = compound: CN1CC[C@H](c2c(O)cc(O)c3c(=O)cc(-c4ccccc4Cl)oc23)[C@H](O)C1 [Flavopiridol]; test: as above
# [5] = compound: CC(=O)c1c(C)c2cnc(Nc3ccc(N4CCNCC4)cn3)nc2n(C2CCCC2)c1=O; test: as above
# YKL-5-124 = compound: C=CC(=O)Nc1ccc(C(=O)Nc2[nH]nc3c2CN(C(=O)N[C@H](CN(C)C)c2ccccc2)C3(C)C)cc1 [YKL-5-124]; test: as above
# THZ1 [6] = compound: T1, THZ1; test: GR value, 72 h; higher = faster growth (1 = untreated, <0 = killing);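 also: breast cancer and non-malignant breast epithelial lines, nine half-log doses, viable cells counted by Hoechst and LIVE/DEAD dye imaging versus time-zero plates and DMSO controls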
# Neratinib/HKI272 [7] = compound: T2, Neratinib/HKI272; test: as above
cell line,measurement,setting,value
HCC1569,increase in dead-cell fraction,[1]; 0.001 µM,-0.0009
same,increase in dead-cell fraction,[1]; 0.003162 µM,0.0054
same,increase in dead-cell fraction,[1]; 0.01 µM,0.0105
same,increase in dead-cell fraction,[1]; 0.03162 µM,0.0034
same,increase in dead-cell fraction,[1]; 0.1 µM,-0.0024
same,increase in dead-cell fraction,[1]; 0.3162 µM,-0.0047
same,increase in dead-cell fraction,[1]; 1 µM,0.0011
same,increase in dead-cell fraction,[1]; 3.162 µM,0.0024
same,increase in dead-cell fraction,[1]; 10 µM,0.0361
same,increase in dead-cell fraction,THZ1 [2]; 0.0001 µM,-0.004
same,increase in dead-cell fraction,THZ1 [2]; 0.0003162 µM,-0.0128
same,increase in dead-cell fraction,THZ1 [2]; 0.001 µM,0.0063
same,increase in dead-cell fraction,THZ1 [2]; 0.003162 µM,-0.0051
same,increase in dead-cell fraction,THZ1 [2]; 0.01 µM,0.0163
same,increase in dead-cell fraction,THZ1 [2]; 0.03162 µM,0.0231
same,increase in dead-cell fraction,THZ1 [2]; 0.1 µM,0.208
same,increase in dead-cell fraction,THZ1 [2]; 0.3162 µM,0.147
same,increase in dead-cell fraction,THZ1 [2]; 1 µM,0.166
same,increase in dead-cell fraction,THZ531; 0.0001 µM,0.0019
same,increase in dead-cell fraction,THZ531; 0.0003162 µM,-0.0034
same,increase in dead-cell fraction,THZ531; 0.001 µM,-0.0007
same,increase in dead-cell fraction,THZ531; 0.003162 µM,0.0032
same,increase in dead-cell fraction,THZ531; 0.01 µM,0.0103
same,increase in dead-cell fraction,THZ531; 0.03162 µM,0.0155
same,increase in dead-cell fraction,THZ531; 0.1 µM,0.161
same,increase in dead-cell fraction,THZ531; 0.3162 µM,0.273
same,increase in dead-cell fraction,THZ531; 1 µM,0.0822
same,increase in dead-cell fraction,Neratinib/HKI272 [3]; 0.0003162 µM,-0.0105
same,increase in dead-cell fraction,Neratinib/HKI272 [3]; 0.001 µM,0.0063
same,increase in dead-cell fraction,Neratinib/HKI272 [3]; 0.003162 µM,0.0037
same,increase in dead-cell fraction,Neratinib/HKI272 [3]; 0.01 µM,0.0107
same,increase in dead-cell fraction,Neratinib/HKI272 [3]; 0.03162 µM,0.0135
same,increase in dead-cell fraction,Neratinib/HKI272 [3]; 0.1 µM,0.0196
same,increase in dead-cell fraction,Neratinib/HKI272 [3]; 0.3162 µM,0.0247
same,increase in dead-cell fraction,Neratinib/HKI272 [3]; 1 µM,0.0283
same,increase in dead-cell fraction,Neratinib/HKI272 [3]; 3.162 µM,0.0338
same,increase in dead-cell fraction,[4]; 0.0001 µM,-0.0022
same,increase in dead-cell fraction,[4]; 0.0003162 µM,-0.0018
same,increase in dead-cell fraction,[4]; 0.001 µM,-0.0077
same,increase in dead-cell fraction,[4]; 0.003162 µM,-0.0052
same,increase in dead-cell fraction,[4]; 0.01 µM,0.0106
same,increase in dead-cell fraction,[4]; 0.03162 µM,0.112
same,increase in dead-cell fraction,[4]; 0.1 µM,0.155
same,increase in dead-cell fraction,[4]; 0.3162 µM,0.138
same,increase in dead-cell fraction,[4]; 1 µM,0.141
same,increase in dead-cell fraction,LEE011/Ribociclib; 0.001 µM,0.0294
same,increase in dead-cell fraction,LEE011/Ribociclib; 0.003162 µM,0.0001
same,increase in dead-cell fraction,LEE011/Ribociclib; 0.01 µM,-0.0082
same,increase in dead-cell fraction,LEE011/Ribociclib; 0.03162 µM,0.0025
same,increase in dead-cell fraction,LEE011/Ribociclib; 0.1 µM,-0.0135
same,increase in dead-cell fraction,LEE011/Ribociclib; 0.3162 µM,-0.0045
same,increase in dead-cell fraction,LEE011/Ribociclib; 1 µM,-0.0042
same,increase in dead-cell fraction,LEE011/Ribociclib; 3.162 µM,-0.0048
same,increase in dead-cell fraction,LEE011/Ribociclib; 10 µM,-0.0015
same,increase in dead-cell fraction,BSJ-03-123; 0.001 µM,0.0046
same,increase in dead-cell fraction,BSJ-03-123; 0.003162 µM,-0.0135
same,increase in dead-cell fraction,BSJ-03-123; 0.01 µM,0.0005
same,increase in dead-cell fraction,BSJ-03-123; 0.03162 µM,0.0168
same,increase in dead-cell fraction,BSJ-03-123; 0.1 µM,0.002
same,increase in dead-cell fraction,BSJ-03-123; 0.3162 µM,0.0007
same,increase in dead-cell fraction,BSJ-03-123; 1 µM,0.0247
same,increase in dead-cell fraction,BSJ-03-123; 3.162 µM,0.0066
same,increase in dead-cell fraction,BSJ-03-123; 10 µM,0.0866
same,increase in dead-cell fraction,Flavopiridol; 0.0001 µM,-0.0248
same,increase in dead-cell fraction,Flavopiridol; 0.0003162 µM,0.001
same,increase in dead-cell fraction,Flavopiridol; 0.001 µM,0.0101
same,increase in dead-cell fraction,Flavopiridol; 0.003162 µM,0.0075
same,increase in dead-cell fraction,Flavopiridol; 0.01 µM,-0.0095
same,increase in dead-cell fraction,Flavopiridol; 0.03162 µM,-0.0064
same,increase in dead-cell fraction,Flavopiridol; 0.1 µM,0.0067
same,increase in dead-cell fraction,Flavopiridol; 0.3162 µM,0.0986
same,increase in dead-cell fraction,Flavopiridol; 1 µM,0.102
same,increase in dead-cell fraction,[5]; 0.0003162 µM,0.0023
same,increase in dead-cell fraction,[5]; 0.001 µM,-0.0102
same,increase in dead-cell fraction,[5]; 0.003162 µM,0.0038
same,increase in dead-cell fraction,[5]; 0.01 µM,0.0052
same,increase in dead-cell fraction,[5]; 0.03162 µM,-0.0056
same,increase in dead-cell fraction,[5]; 0.1 µM,-0.0096
same,increase in dead-cell fraction,[5]; 0.3162 µM,0.0042
same,increase in dead-cell fraction,[5]; 1 µM,0.0001
same,increase in dead-cell fraction,[5]; 3.162 µM,-0.0109
same,increase in dead-cell fraction,YKL-5-124; 0.001 µM,0.0331
same,increase in dead-cell fraction,YKL-5-124; 0.003162 µM,0.014
same,increase in dead-cell fraction,YKL-5-124; 0.01 µM,-0.0042
same,increase in dead-cell fraction,YKL-5-124; 0.03162 µM,0.0104
same,increase in dead-cell fraction,YKL-5-124; 0.1 µM,-0.0403
same,increase in dead-cell fraction,YKL-5-124; 0.3162 µM,0.0447
same,increase in dead-cell fraction,YKL-5-124; 1 µM,0.0404
same,increase in dead-cell fraction,YKL-5-124; 3.162 µM,0.0237
same,increase in dead-cell fraction,YKL-5-124; 10 µM,0.151
same,GR value,THZ1 [6]; 0.0001 µM,1.16 GR
same,GR value,THZ1 [6]; 0.0003162 µM,1.14 GR
same,GR value,THZ1 [6]; 0.001 µM,1.15 GR
same,GR value,THZ1 [6]; 0.003162 µM,1.42 GR
same,GR value,THZ1 [6]; 0.01 µM,0.908 GR
same,GR value,THZ1 [6]; 0.03162 µM,0.468 GR
same,GR value,THZ1 [6]; 0.1 µM,-0.112 GR
same,GR value,THZ1 [6]; 0.3162 µM,-0.346 GR
same,GR value,THZ1 [6]; 1 µM,-0.325 GR
same,GR value,Neratinib/HKI272 [7]; 0.0003162 µM,0.95 GR
same,GR value,Neratinib/HKI272 [7]; 0.001 µM,0.948 GR
same,GR value,Neratinib/HKI272 [7]; 0.003162 µM,0.863 GR
same,GR value,Neratinib/HKI272 [7]; 0.01 µM,0.708 GR
same,GR value,Neratinib/HKI272 [7]; 0.03162 µM,0.612 GR
same,GR value,Neratinib/HKI272 [7]; 0.1 µM,0.537 GR
same,GR value,Neratinib/HKI272 [7]; 0.3162 µM,0.363 GR
same,GR value,Neratinib/HKI272 [7]; 1 µM,0.225 GR
same,GR value,Neratinib/HKI272 [7]; 3.162 µM,0.124 GR
